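Assay format: 96-well plates, 48-hour exposure. The concentration for 50% growth inhibition is given as GI50. TGI: concentration producing complete growth inhibition.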
How the values were obtained:
Assay in all cases: DTP human tumour cell line panel, 48 h
CAKI-1 renal = test system: CAKI-1 renal
EKVX NSCLC = test system: EKVX NSCLC
HCT-15 colon = test system: HCT-15 colon
NCI-H226 lung = test system: NCI-H226 lung
NCI/ADR-RES ovarian = test system: NCI/ADR-RES ovarian
SNB-19 CNS = test system: SNB-19 CNS
TK-10 renal = test system: TK-10 renal
UACC-62 melanoma = test system: UACC-62 melanoma
UO-31 renal = test system: UO-31 renal
MOLT-4 leukemia = test system: MOLT-4 leukemia

SMILES | GI50 (CAKI-1 renal) | TGI (CAKI-1 renal) | GI50 (EKVX NSCLC) | TGI (EKVX NSCLC) | GI50 (HCT-15 colon) | TGI (HCT-15 colon) | GI50 (NCI-H226 lung) | TGI (NCI-H226 lung) | GI50 (NCI/ADR-RES ovarian) | TGI (NCI/ADR-RES ovarian) | GI50 (SNB-19 CNS) | TGI (SNB-19 CNS) | GI50 (TK-10 renal) | TGI (TK-10 renal) | GI50 (UACC-62 melanoma) | TGI (UACC-62 melanoma) | GI50 (UO-31 renal) | TGI (UO-31 renal) | GI50 (MOLT-4 leukemia) | TGI (MOLT-4 leukemia)
CCOC(=O)/C=C/C1=C(c2cccs2)c2ccccc2CC1 | 43.1 µM | > 100 µM | 27.8 µM | 86.7 µM | 16.5 µM | 34 µM | 25.4 µM | 70.2 µM | 21.1 µM | 55.9 µM | 30.9 µM | > 100 µM | 17.9 µM | 64.3 µM | 18.7 µM | 40.9 µM | 33.5 µM | > 100 µM |  | 
COc1cc(-c2cn(-c3ccc(Cl)c(Cl)c3)c(=O)n2C(C)=O)cc(OC)c1OC | 11.5 µM | 33.5 µM | 2.6 µM | 8.26 µM | 18.1 µM | 45.9 µM | 7.96 µM | 25.9 µM | 13.5 µM | 31.7 µM | 11.3 µM | 33.2 µM | 12.2 µM | 31 µM | 13.3 µM | 26 µM | 12 µM | 27.4 µM | 14.7 µM | 31.6 µM
Nc1ccccc1C#C/C=C\C#Cc1ccccc1 | 1.44 µM | 8.35 µM | 15.3 µM | 41.1 µM | 26.2 µM | 92.3 µM | 11.8 µM | 31.3 µM | 14.8 µM | 32.4 µM | 29.7 µM | > 100 µM |  |  | 13 µM | 27.7 µM | 17.7 µM | 59.3 µM | 13.3 µM | > 100 µM
Fc1cc2[nH]ncc2c2c3c(c(-c4cn[nH]c4C(F)(F)F)nc12)C1CCC3C1 (configuration not stated) | 0.602 µM | 3.51 µM | 1.39 µM | 5.91 µM | 1.33 µM | 7.28 µM | 0.926 µM | 4.72 µM | 2.4 µM | 16.1 µM | 1.59 µM | 6.57 µM | 0.744 µM | 4.08 µM | 0.878 µM | 3.39 µM | 0.767 µM | 1.97 µM | 0.99 µM | 4.31 µM
CCn1c(-c2nonc2N)nc2c(C#CC(C)(C)O)nc(OCCNC)cc21 | > 18.2 µM | > 25 µM | > 18.3 µM | > 25 µM | 9.67 µM | > 25 µM | 8.09 µM | > 23.1 µM | > 25 µM | > 25 µM | 8.4 µM | > 25 µM | 6.35 µM | 20.4 µM | 6.08 µM | 16.9 µM | 8.9 µM | > 25 µM | 8.68 µM | > 25 µM
O=C(O)C1CCCCC1C(=O)O.[NH-]C1CCC1.[NH2-].[Pt+2] (configuration not stated) | 2.61 µM | 17.4 µM | 26.5 µM | 84.8 µM | 17.3 µM | 34.5 µM | 18.9 µM | 42.8 µM | 33.8 µM | > 100 µM | > 100 µM | > 100 µM | 18.1 µM | 34.4 µM | 11.4 µM | 23.6 µM | 19.4 µM | 50.3 µM | 5.48 µM | > 100 µM
Nc1ccc(C(=O)CC(N)C(=O)O)cc1O (configuration not stated) |  | > 100 µM |  | > 100 µM |  | > 100 µM |  | > 100 µM |  | > 100 µM |  | > 100 µM |  | > 100 µM |  | > 100 µM |  | > 100 µM |  | > 100 µM
CNCCn1c(=O)c2cc(OC)c(OC)cc2c2ccc3cc4c(cc3c21)OCO4 | 0.0718 µM | 0.588 µM | 0.266 µM | 5.01 µM | 0.175 µM | 3.06 µM | 0.192 µM | 1.03 µM | 0.217 µM | 3.19 µM | 0.116 µM | 5.61 µM | 0.513 µM | 1.56 µM | 0.0465 µM | 0.145 µM | 0.123 µM | 0.543 µM | 0.0227 µM | 0.211 µM
Cc1ccc2nc(-c3ccc(N(C)C)c(Br)c3)cn2c1 | > 100 µM | > 100 µM | > 100 µM | > 100 µM | 4.19 µM | > 100 µM | > 100 µM | > 100 µM | > 100 µM | > 100 µM | 64.4 µM | > 100 µM | > 100 µM | > 100 µM | > 100 µM | > 100 µM | > 100 µM | > 100 µM | 3.99 µM | > 100 µM
O=C1NC(=S)S/C1=C(/C=C(\CC(=O)c1ccccc1)c1ccc(Cl)cc1)c1ccccc1 | 33.7 µM | > 100 µM | 33.6 µM | > 100 µM | 15.8 µM | 39.4 µM | 28.5 µM | 90.4 µM | 28.4 µM | 79.9 µM | 95.1 µM | > 100 µM | 29.6 µM | > 100 µM | 21.6 µM | 43.7 µM | 48.6 µM | > 100 µM | 19.5 µM | 51.6 µM
Cc1sc2nc3c4ccccc4c(NCCCN(C)C)nn3c(=O)c2c1C | 8.87 µM | 23.5 µM | 15.7 µM | 35.8 µM | 6.73 µM | 20.8 µM | 5.26 µM | 23.1 µM | 10.7 µM | 24.8 µM | 15.9 µM | 29.5 µM | 13.6 µM | 28.9 µM |  |  | 3.13 µM | 16.7 µM | 0.782 µM | 3.38 µM
COc1cc(/C=C2\C(=O)Nc3ccc(N(C)C)cc32)cc(OC)c1OC | 5.78 µM | > 80.5 µM | 5.25 µM | > 100 µM | 1.23 µM | 49.8 µM | 14.2 µM | > 100 µM | 1.93 µM | 6.27 µM | 3.67 µM | > 100 µM | 6.42 µM | 40.6 µM | 2.5 µM | > 100 µM | 3.17 µM | > 87.4 µM | 2.87 µM | > 30.9 µM
CCN(CC)C(=S)SC |  |  |  | > 100 µM |  | > 100 µM |  | > 100 µM |  | > 100 µM |  | > 100 µM |  | > 100 µM |  | > 100 µM |  |  |  | > 100 µM
CC(CCC(=O)O)C(=O)O (configuration not stated) |  | > 100 µM |  | > 100 µM |  | > 100 µM |  | > 100 µM |  | > 100 µM |  | > 100 µM |  | > 100 µM |  | > 100 µM |  | > 100 µM |  | > 100 µM

From PubChem BioAssay (NCI)
